Measurements as given in patent US20250052751A1, “COMPOSITIONS AND METHODS FOR DIAGNOSING AUTOIMMUNE AQUAPORINOPATHY” (The Regents of the University of California, priority 2023, published 2025).

Legend:
[1] = test system: draining lymph node cells; assay: Proliferation assay, ^3H-thymidine incorporation after s.c. peptide immunization; format: cell-based, mouse
Method: (§1) FIGS. 2A-2F. Pathogenic AQP4 determinants bind I-A^b with high affinity and elicit proliferation of AQP4: I-A^b-specific TCR-bearing T cells in AQP4-deficient mice. (FIG. 2A) WT or AQP4^−/− mice were immunized s.c. with peptides indicated. Peptide-specific proliferation of draining lymph node cells was measured by 3H-thymidine incorporation (mean±SEM, representative of five experiments). (FIG. 2B) Lymph node cells from AQP4 immunized WT or AQP4^−/− mice were cultured for 3 days with cognate antigen under Th17 polarizing conditions. AQP4 p133-149- and p202-218-specific Th17 cells from AQP4/donors induce paralysis in WT recipient mice. (FIG. 2C) IEDB, an in silico method for predicting determinants within proteins that bind MHC alleles, was used to identify AQP4 amino acid sequences anticipated to bind I-A^b for recognition by AQP4-specific/I-A^b-restricted CD4^+ T cells. 1/IC50 is plotted against the first amino acid for each overlapping AQP4 15 mer. Peaks correspond to increased predicted binding affinity. (FIG. 2D) Purified I-A^b molecules were tested biochemically for peptide binding affinity using a competitive binding assay between a radiolabeled high-affinity competitor peptide and unlabeled peptides (22). Lower IC50 values indicate higher binding affinity. Boxed amino acids designate the core binding regions. (FIGS. 2E-2F) Lymph node T cells isolated from WT or AQP4−/− mice immunized with AQP4 p133-149 or p202-218 were stained with I-A^b:p133-149 and […] tetramers, bead-enriched and analyzed by flow cytometry. […] Each data point represents one mouse. ****p<0.0001 (Mann Whitney U test).
(§2) FIGS. 4A-4B. Negative selection of AQP4 p133-149-reactive T cells is bypassed partially in mice deficient in thymic AQP4 expression. (FIG. 4A) AQP4^−/− WT, Foxn1cre-AQP4^fl/fl, Aire^−/−, or Foxn1cre-Fezf2^fl/fl mice were immunized s.c. with peptides indicated. Peptide-specific proliferation of draining lymph node cells was measured by 3H-thymidine incorporation (mean±SEM, representative of five experiments). Comparisons within the five experiments for p133-149 at […]: WT vs. AQP4^−/− (p=0.008), WT vs. Foxn1cre-AQP4^fl/fl (p=0.008). (FIG. 4B) Ten days after peptide immunization, CD4^+ T cells from draining lymph nodes were analyzed for I-A^b: peptide tetramer binding by flow cytometry. Each data point represents the frequency (mean±SEM) of CD4^+ T cells bound to cognate antigen-tetramer in a single mouse. […] For p133-149: WT vs. Aire^−/− (p=0.9), WT vs. Foxn1cre-Fezf2^fl/fl (p=0.3). For p202-218: WT vs. Foxn1cre-AQP4^fl/fl (p=0.3), WT vs. Aire^−/− (p=0.06).
(§3) Proliferation assays. Mice were immunized subcutaneously (s.c.) with 100 μg of AQP4, MOG or IRBP peptide in CFA containing 400 μg M. tuberculosis H37Ra (Difco Laboratories). Lymph nodes were harvested on day 10-12 and cultured at 2×10^5/well with various concentrations of peptide in triplicate wells for 72 hours. […] of ^3H-thymidine was added 18 hours prior to cell harvest, and data are presented as counts per minute (CPM). Stimulation Index (SI) was calculated by dividing CPM in wells with Ag by CPM in wells with no antigen controls of each assay test group.

[2] = test system: TCRα deficient mice; assay: Adoptive transfer of peptide-primed, AQP4 201-220-cultured Th17 cells into TCRα deficient mice; format: in vivo, mouse; settings: for clinical CNS autoimmune disease after transfer of primed Th17 cells: donor AQP4-deficient mice primed with the peptide, cells cultured with AQP4 201-220, 2×10^7 T cells into TCRα deficient mice; for meningeal and parenchymal infiltrates vs OVA primed T cells: recipients of primed donor T cells, histological analysis
Method: FIGS. 9A-9C. T cells reactive to AQP5, an autoantigen in Sjögren's syndrome also recognize AQP4, the autoantigen in NMO, and can cause CNS autoimmune disease. (FIG. 9A) AQP4-deficient mice were immunized with AQP4 p201-220, AQP5 p174-190 or OVA 323-339. 10-12 days later lymphocytes from draining lymph nodes are removed and cultured with AQP4 201-220 under Th17 polarizing conditions for 72 hours. 2×10^7 T cells were transferred into TCRα deficient mice, followed by 200 ng Pertussis toxin at days 0 and 2. […] Statistics performed using ANOVA with Tukey's test for multiple comparisons. ****P<0.0001.
CNS autoimmune disease induction and analysis. For adoptive induction of CNS disease with primary lymphocytes, mice were immunized s.c. with 100 μg AQP4 or MOG peptides in CFA containing 400 μg M. tuberculosis H37Ra (Difco Laboratories). After 10-12 days, lymph node cells were cultured with 15 μg/ml antigen for 3 days with 20 ng/ml IL-23 and 10 ng/ml IL-6, under Th17 polarizing conditions. 2×10^7 cells were injected i.v. into naïve recipients, which then received 200 ng B. pertussis toxin (Ptx) (List Biological) i.p. on days 0 and 2. Clinical scores: 0=no disease, 1=tail tone loss, 2=impaired righting, 3=severe paraparesis or paraplegia, 4=quadraparesis, and 5=moribund or death.
Histopathology. Brain, spinal cord, optic nerve, kidney and muscle tissue samples were fixed in 10% neutral-buffered formalin, paraffin-embedded, sectioned and stained with H&E. Meningeal and parenchymal inflammatory lesions and areas of demyelination were assessed in a blinded manner as described (39).

[3] = target: T1, MHC class II I-A^b molecules (Mus musculus, UniProt P14434+P14483); assay: I-A^b affinity assay (competitive binding against a radiolabeled high-affinity peptide); settings: purified I-A^b; unlabeled peptide vs radiolabeled high-affinity competitor peptide
T1 construct: made in house
T1 sequence (P14434 24-256): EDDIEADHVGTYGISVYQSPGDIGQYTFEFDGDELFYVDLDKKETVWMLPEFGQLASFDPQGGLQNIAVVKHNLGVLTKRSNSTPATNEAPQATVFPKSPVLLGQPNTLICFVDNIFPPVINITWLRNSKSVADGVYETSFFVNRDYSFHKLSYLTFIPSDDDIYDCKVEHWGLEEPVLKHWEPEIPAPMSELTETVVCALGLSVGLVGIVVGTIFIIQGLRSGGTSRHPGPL
T1 sequence (P14483 28-265): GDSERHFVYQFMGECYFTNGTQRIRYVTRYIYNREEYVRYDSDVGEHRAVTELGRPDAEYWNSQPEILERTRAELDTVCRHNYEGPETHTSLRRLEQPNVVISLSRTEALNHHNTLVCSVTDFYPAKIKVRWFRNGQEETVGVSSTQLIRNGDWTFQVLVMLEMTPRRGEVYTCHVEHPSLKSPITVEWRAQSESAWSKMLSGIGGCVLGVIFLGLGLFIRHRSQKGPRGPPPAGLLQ
Method: as §1
Both AQP4 p133-149 and p202-218 are predicted to bind MHC II (I-A^b) with high affinity according to the Immune Epitope Database (IEDB) (FIG. 2C), an in silico method for predicting determinants within proteins that bind allele-specific MHC molecules for presentation to T cells (21). We have now examined AQP4 peptide affinity for I-A^b biochemically. I-A^b molecules that were purified by affinity chromatography were tested in a competitive binding assay between a radiolabeled high-affinity competitor peptide and unlabeled peptides (22). Indeed, peptides containing the two pathogenic AQP4 T cell determinants bound I-A^b with higher affinity than the nonpathogenic AQP4 p24-35 T cell epitope or MOG p35-55 (FIG. 2D).
I-A^b affinity Assay. Purification of MHC class II I-A^b molecules by affinity chromatography, and the performance of assays based on the inhibition of binding of a high affinity radiolabeled peptide to quantitatively measure peptide binding, were performed as described (22). Lower IC50 values indicate higher binding affinity. Excellent binders have affinities less than 100 nM and good binders have affinities less than 1000 nM.

[4] = test system: CD4^+ T cells; assay: I-A^b:peptide tetramer binding by flow cytometry after peptide immunization; format: cell-based, mouse; settings: Aire^−/− mice, I-A^b:IRBP p277-289 tetramer
Method: as §2
Flow cytometry. For analysis of tetramer binding, AQP4 p133-149, p202-218, IRBP p277-289 and hCLIP p87-101 IA^b tetramers conjugated to PE or APC were provided by the National Institute of Allergy and Infectious Diseases Tetramer Core Facility at Emory University. Lymphocytes were coincubated with 1 mg/ml tetramer conjugated to PE or APC for 2 hours at room temperature, washed and enriched using anti-PE magnetic microbeads (Miltenyi) over a magnetic column. Binding to hCLIP tetramer was used as a negative control. Dead cells were excluded using Live/Dead fixable Aqua Dead Cell Stain Kit (Invitrogen), lineage negative cells were excluded using antibodies to CD11b (M1/70), B220 (RA3-6B2) and CD8 (53-6.7) and positive cells were selected using antibodies to CD3 (145-2C11) and CD4 (RM4.5). 123count eBeads (Invitrogen) were used with unenriched and enriched samples for quantification of the frequency of tet^+CD4^+ T cells (total number of tet^+CD4+ T cells divided by total CD4^+ T cells per mouse). For figures showing tetramer staining, flow cytometry of the unenriched cells are shown. For analysis of GFP^+ T cells, mice were perfused with PBS, and the CNS was dissected, minced, digested with collagenase and DNase I (Roche), and isolated over a Ficoll gradient as described previously (39). Live CD4^+ cells were analyzed with a viability stain (Near-IR), and antibodies to CD11b, B220, CD8 and CD4. Apoptosis was analyzed separately using the same antibody staining, followed by Annexin V and 7-AAD staining in Annexin V binding buffer (BioLegend) per manufacturer's instructions. Cells were quantified using 123count eBeads.

[5] = test system: draining lymph node cells; assay: T cell cross-reactivity between AQP4 and AQP5, ^3H-thymidine proliferation; format: cell-based, mouse; settings: AQP4-deficient mice immunized with 100 μg AQP5 p174-190; cells cultured with AQP4 201-220, then restimulated
Method: FIG. 8. T cells cross-react with AQP4 and AQP5. AQP4-deficient mice were immunized with 100 μg of AQP5 p174-190. Draining lymph node cells were cultured with AQP4 201-220, then restimulated with the different antigens. Proliferation was measured by ^3H-thymidine incorporation of the stimulation to antigen divided by the background stimulation (mean±SEM).
as §3

Substance: AQP4 p24-35: nonpathogenic AQP4 T cell epitope (VAFKGVWTQAFW) [reference compound]
- discordance in proliferation between AQP4^−/− and WT mice [1]: not observed

Substance: AQP4 p201-220: AQP4 T cell epitope (201-220) that causes CNS autoimmunity in mice (HLFAINYTGASMNPARSFGP; UniProt P55088 201-220, looked up, fragment)
- clinical CNS autoimmune disease after transfer of primed Th17 cells [2]: cause paralysis
- meningeal and parenchymal infiltrates vs OVA primed T cells [2]: significantly more meningeal and parenchymal infiltrates
- peptide binding affinity for I-A^b [3]: exceptionally high affinity

Substance: IRBP p277-289: Aire-dependent T cell determinant of interphotoreceptor retinoid-binding protein (FLTVPVSRSLGPL; UniProt P49194 277-289, looked up, fragment) [reference compound]
- expansion of CD4^+ tet^+ T cells [4]: promoted expansion

Substance: LVGIYFTGCSMNPARSF [AQP5 p174-190, autoantigen in Sjögren's syndrome]
- T cell cross-reactivity [5]: T cell cross-reactivity between AQP5 174-190 and AQP4 201-220
- T cell stimulation (proliferation) [5]: stimulatory
- clinical CNS autoimmune disease after transfer of primed Th17 cells [2]: cause paralysis
- clinical CNS autoimmune disease after transfer of primed Th17 cells ([2]; listed as AQP5 174-190): can induce clinical and histologic CNS autoimmune disease
- meningeal and parenchymal infiltrates vs OVA primed T cells [2]: significantly more meningeal and parenchymal infiltrates
